Reference: patent publication US7550425B2, “Diuretic peptide conjugates” (Zealand Pharma A/S, priority 2000, dated 2009)
Read-outs that look alike come from different tables or passages of the source.

Assay: In vitro stability in heparinised human plasma
Type: in vitro ADME
Protocol: In addition, the degradation of Compound 1 of the invention has been studied in heparinised human plama.
The stability of peptides is analysed in human plasma. The peptides are incubated at 37° C. in plasma and samples taken at approx. 8 regular intervals between t=0 and t=390 min for Compound 1 and nociceptin-NH2, and at 9 intervals between t=0 and t=32 min for Compound CE1 are analysed by HPLC. […] This is done by subsequent injections of the drug, plasma, and a co-injection with the drug and the plasma, followed by optimisation of the LC method parameters until a satisfactory separation is obtained. Three parallel experiments are performed for each plasma type. 100 μl of peptide is mixed with 900 μl plasma at t=0 and incubated at 37° C. (drug-plasma mixture conc. 0.1 mg/ml). Samples of 100 μl of the drug-plasma mixture are removed at appropriate intervals and the degradation stopped by precipitation of the sample with 10 μl MeCN:TFA 50:50 v/v. A control plasma sample without the drug treated in the same manner is also taken. The plasma samples are centrifuged for 15 min. at 12,000 rpm (Eppendorf centrifuge) at ambient temperature. The resulting supernatant solution is transferred to 300 μl HP autosamler vials and analyzed by HPLC. HPLC analysis are performed as follows:
Ac-RYYRWK-NH2 (SEQ ID NO: 1) and Compound 1
The samples are analysed in the following order: blank, the peptide at 0.1 mg/mL, the plasma without the peptide, the three parallel samples for t=0, the three parallel samples for t=5 min. the three parallel samples for t=60 min. etc. And finally the three parallel samples for t=0 are repeated to make sure that there have been no degradation or other failure during the analyses. The sample concentrations (peak height in mAU) are plotted vs. time and fitted to a function describing a mono exponential decay (Excel). The half-lives of the peptides in plasma are presented in Table 7 as mean (n=3)±standard deviation.

Ac-RYYRWKKKKKKK-NH2 [Compound 1, Ac-RYYRWKKKKKKK-NH2]
half-life at 0.1 mg/ml (37° C., mean (n=3) +/− deviation, read-out: T1/2 in min (degradation in human heparinised plasma)): 16.2 h | half-life at 0.1 mg/ml (read-out: half life in plasma): > 16 h
